{"source": "patent US20130005811A1", "about": "“ANTIMICROBIAL TREATMENT FOR SEEDS AND SPROUTS” (priority 2010, published 2013)", "key": {"E. coli O157:H7": {"test_system": "E. coli O157:H7", "experiment": "E. coli O157:H7 on alfalfa seeds with an initial inoculum of 10^4 CFU/g", "format": "cell-based, Escherichia coli O157:H7"}, "S. typhimurium DT 104": {"test_system": "S. typhimurium DT 104", "experiment": "Salmonella on alfalfa seeds with an initial inoculum of 10^4 CFU/g", "format": "cell-based, Salmonella typhimurium DT104", "procedure": "Five isolates of Escherichia coli O157:H7, including strain 932 (human isolate), E009 (beef isolate), E0018 (cattle isolate), E0122 (cattle isolate), E0139 (deer jerky isolate); and five isolates of Salmonella typhimurium DT104, including strain H2662 (cattle isolate), 11942A (cattle isolate), 13068A (cattle isolate), 152N17-1 (dairy isolate) and H3279 (human isolate) were used. Nalidixic acid-resistant (50 μg/ml) E. coli O157:H7 were used to facilitate enumeration. Each E. coli O157:H7 and Salmonella strain was grown in tryptic soy broth (TSB, Beckon Dickinson, Sparks, Md.) at 37° C. for 18 hr. Approximately equal cell numbers of each of the five strains were combined and used as a 5-strain mixture with cell numbers being adjusted by spectrophotometric (Spectronic Instruments, Rochester, N.Y.) determination as described in Zhao et al., (2009) J. Food Prot. 72: 928-936, incorporated herein by reference in its entirety. Bacterial cell numbers were confirmed by plating 0.1 ml of serial dilutions (1:10) in 0.1% peptone on tryptic soy agar (TSA, Beckon Dickinson) and Sorbitol MacConkey agar (SMA, Oxoid, Hampshire, UK) for E. coli O157:H7, and TSA and XLD agar (Beckon Dickinson) for Salmonella and incubating all plates at 37° C. for 24 hr, after which colonies were counted.\nLevulinic acid (0.5%) and 0.05% sodium dodecyl sulfate (SDS) obtained from Sigma-Aldrich (St. Louis, Mo.) were tested in combination at 21±2° C. for their antimicrobial activity to E. coli O157:H7 and S. typhimurium on alfalfa seeds as a wash treatment. Calcium hypochlorite (Arch Chemicals, Smyrna, Ga.) at 20,000 μg/ml (ppm) was used as the positive control, and deionized water was used as the negative control.\nBefore each trial, 25 ml of sterile tap water and 25 g of alfalfa seeds were added to a WHIRL-PAK® bag (Nasco, Fort Atkinson, Wis.) and pummeled in a stomacher blender at 150 rpm for 1 min. Duplicate 0.1 ml portions of the contents were plated on SMA, XLD, and TSA plates to detect E. coli O157:H7 and Salmonella, and enumerate aerobic bacteria counts according to the protocols described below. Only E. coli O157:H7-negative and Salmonella-negative alfalfa seeds were used. Dry seeds (50 g) were individually placed in a sterilized glass beaker (1 L) and 5 ml of a mixture of E. coli O157:H7 or S. typhimurium DT 104 (high inocula at 10^8-10^9 CFU/ml and low inocula at 10^3-10^4 CFU/ml) was inoculated on the surface of the seeds in each glass beaker under a laminar flow hood. A sterile plastic spoon was used to mix for 2 min the seeds with bacterial suspension. […]\nInactivation of E. coli O157:H7 and Salmonella on Alfalfa Seeds: Inoculated, dried alfalfa seeds (50 g samples) were placed in a 1000 ml glass beaker containing 200 ml of treatment solution and agitated by a magnetic stir bar at 150 ppm at 21° C. for 0, 1, 2, 5, 10, 20, 30, and 60 min. Following treatment, 25 g of seeds was placed in a stomacher bag containing 25 ml 0.1M phosphate buffer, pH 7.2 (PBS) for levulinic acid plus SDS-treated seeds or neutralizing buffer ([…], Ltd., Worthing, England). The suspension was serially (1:10) diluted in 0.1% peptone water and 0.1 ml of each dilution was surface-plated in duplicate onto TSA and Sorbitol MacConkey agar containing 50 μg nalidixic acid/ml (TSA-NA and SMA-NA) for E. coli O157:H7, and on TSA and XLD containing ampicillin (32 μg/ml), tetracycline (16 μg/ml) and streptomycin (64 μg/ml) (TSA+ and XLD+) for S. typhimurium DT 104. All plates were incubated at 37° C. for 48 hr."}, "[1]": {"conditions": "10 min in glass beaker then pummeled 10 min in stomacher bag"}, "[2]": {"conditions": "dried at 21° C. for 2 hr, treated for 20 min (10 min in beaker and 10 min in a stomacher bag) at 21° C."}, "[3]": {"conditions": "none pathogen-positive by direct plating"}}, "data": [{"smiles": "[Ca+2].[O-]Cl.[O-]Cl", "note": "[20,000 ppm, Ca(OCl)2, pH 11.4, Calcium hypochlorite]", "values": [{"measurement": "E. coli O157:H7 on treated seeds by direct plating method", "setting": "E. coli O157:H7; [1]", "value": "negative"}, {"measurement": "E. coli O157:H7 count in sample No. 1-10 (seeds)", "setting": "E. coli O157:H7; [2]", "value": "−"}, {"measurement": "E. coli O157:H7 count in sample No. 1-10 (treated supernatant)", "setting": "E. coli O157:H7; [2]", "value": "−"}, {"measurement": "E. coli O157:H7 in solutions used for treatment", "setting": "E. coli O157:H7; enrichment culture after use", "value": "negative"}, {"measurement": "E. coli O157:H7 detection in samples treated for 10 min", "setting": "E. coli O157:H7; [3]", "value": "sporadically positive by enrichment culture assay"}, {"measurement": "Salmonella on treated seeds by direct plating method", "setting": "S. typhimurium DT 104; [1]", "value": "negative"}, {"measurement": "S. typhimurium DT 104 count in sample No. 1-10 (seeds)", "setting": "S. typhimurium DT 104; [2]", "value": "−"}, {"measurement": "S. typhimurium DT 104 count in sample No. 1-10 (treated supernatant)", "setting": "S. typhimurium DT 104; [2]", "value": "−"}, {"measurement": "Salmonella in solutions used for treatment", "setting": "S. typhimurium DT 104; enrichment culture after use", "value": "negative"}, {"measurement": "Salmonella detection in samples treated for 10 min", "setting": "S. typhimurium DT 104; [3]", "value": "sporadically positive by enrichment culture assay"}]}]}
